# Columns and labels:
# Assay in all cases: Herbicidal efficacy, % weed control
# Format in all cases: in vivo
# Cenchrus echinatus = details: 35 days after administration
# From the text: (§1) This effectiveness of all treatments can be evaluated according to Colby's equation. In the Colby's equation given below, E is the expected efficacy of combination of Propisochlor and another herbicide, X is the observed efficacy of Propisochlor and Y is the observed efficacy of other herbicide. Observed efficacy values i.e. X and Y are % weed control for Propisochlor and another herbicide. If observed efficacy of combination of Propisochlor and other herbicide is greater than its expected efficacy, then combination is determined to be synergistic. If observed efficacy is equal to or less than expected efficacy, then combination is determined to be non-synergistic.
# (§2) Experiments were carried out to evaluate the efficacy of combinations of present invention.
# (§3) Herbicidal activity of synergistic mixtures of the combinations of present invention is represented in below tables.
# Ipomoea grandifolia = system: Ipomoea grandifolia
# From the text: as §1, §2, §3
# Commelina benghalensis = details: 35 days after administration
# From the text: as §1, §2, §3
# Brachiaria decumbens = details: 35 days after administration
# From the text: as §1, §2, §3
# Brachiaria plantaginea = details: 35 days after administration, Table 1
# From the text: as §1, §2, §3
# Spermacoce verticillata = details: 35 days after administration, Table 2
# From the text: as §1, §2, §3
# Ipomoea hederifolia = details: 35 days after administration, Table 2
# From the text: as §1, §2, §3
# Eleusine indica = details: 35 days after administration, Table 2
# From the text: as §1, §2, §3
compound,measurement,setting,value
CCSC(C)CC1CC(=O)C(/C(CC)=N/OC/C=C/Cl)=C(O)C1 (stereo not drawn) [Clethodim],% Weed control Cenchrus echinatus,"Cenchrus echinatus; 120 g ai/ha, Table 4",0.0%
CN(C)C(=O)Nc1ccc(Cl)c(Cl)c1 [Diuron],% Weed control Ipomoea grandifolia,"Ipomoea grandifolia; 500 g ai/ha, 21 days after administration, Table 7",0.0%
same,% Weed control Ipomoea grandifolia,"Ipomoea grandifolia; 1000 g ai/ha, 35 days after administration, Table 9",0.0%
same,% Weed control Ipomoea grandifolia,"Ipomoea grandifolia; 2000 g ai/ha, 35 days after administration, Table 9",0.0%
same,% Weed control Commelina benghalensis,"Commelina benghalensis; 500 g ai/ha, Table 8",0%
same,% Weed control Cenchrus echinatus,"Cenchrus echinatus; 1000 g ai/ha, Table 9",5.0%
same,% Weed control Cenchrus echinatus,"Cenchrus echinatus; 2000 g ai/ha, Table 9",1.3%
same,% Weed control Brachiaria decumbens,"Brachiaria decumbens; 1000 g ai/ha, Table 9",3.8%
same,% Weed control Brachiaria decumbens,"Brachiaria decumbens; 2000 g ai/ha, Table 9",12.5%
C#CCN1C(=O)COc2cc(F)c(N3C(=O)C4=C(CCCC4)C3=O)cc21 [Flumioxazin],% Weed control Brachiaria plantaginea,Brachiaria plantaginea; 50 g ai/ha,53.75%
same,% Weed control Commelina benghalensis,"Commelina benghalensis; 50 g ai/ha, Table 1",90.25%
same,% Weed control Brachiaria decumbens,"Brachiaria decumbens; 50 g ai/ha, Table 1",63.75%
COC(=O)[C@@H](C)Oc1ccc(Oc2ncc(C(F)(F)F)cc2Cl)cc1 [Haloxyfop-p-methyl],% Weed control Brachiaria decumbens,"Brachiaria decumbens; 62.1 g ai/ha, Table 3",11.3%
CN(C)c1nc(=O)n(C2CCCCC2)c(=O)n1C [Hexazinone],% Weed control Commelina benghalensis,"Commelina benghalensis; 125 g ai/ha, Table 6",45.0%
same,% Weed control Brachiaria decumbens,"Brachiaria decumbens; 125 g ai/ha, Table 6",11.3%
CCc1cccc(C)c1N(COC(C)C)C(=O)CCl [Propisochlor],% Weed control Brachiaria plantaginea,Brachiaria plantaginea; 1200 g ai/ha,84.50%
same,% Weed control Ipomoea grandifolia,"Ipomoea grandifolia; 540 g ai/ha, 21 days after administration, Table 7",7.5%
same,% Weed control Ipomoea grandifolia,"Ipomoea grandifolia; 540 g ai/ha, 35 days after administration, Table 9",0.0%
same,% Weed control Ipomoea grandifolia,"Ipomoea grandifolia; 540 g ai/ha, 35 days after administration, Table 11",53.8%
same,% Weed control Ipomoea grandifolia,"Ipomoea grandifolia; 1080 g ai/ha, 21 days after administration, Table 7",22.5%
same,% Weed control Ipomoea grandifolia,"Ipomoea grandifolia; 1080 g ai/ha, 35 days after administration, Table 10",45.0%
same,% Weed control Ipomoea grandifolia,"Ipomoea grandifolia; 1080 g ai/ha, 35 days after administration, Table 11",55.50%
same,% Weed control Spermacoce verticillata,Spermacoce verticillata; 525 g ai/ha,92.75%
same,% Weed control Spermacoce verticillata,Spermacoce verticillata; 675 g ai/ha,95.75%
same,% Weed control Commelina benghalensis,"Commelina benghalensis; 1080 g ai/ha, Table 6",90.8%
same,% Weed control Commelina benghalensis,"Commelina benghalensis; 1080 g ai/ha, Table 8",90.8%
same,% Weed control Commelina benghalensis,"Commelina benghalensis; 1080 g ai/ha, Table 10",90.8%
same,% Weed control Commelina benghalensis,"Commelina benghalensis; 1200 g ai/ha, Table 1",92.00%
same,% Weed control Cenchrus echinatus,"Cenchrus echinatus; 540 g ai/ha, Table 4",71.3%
same,% Weed control Cenchrus echinatus,"Cenchrus echinatus; 540 g ai/ha, Table 5",71.3%
same,% Weed control Cenchrus echinatus,"Cenchrus echinatus; 540 g ai/ha, Table 9",91.8%
same,% Weed control Cenchrus echinatus,"Cenchrus echinatus; 1080 g ai/ha, Table 4",88.8%
same,% Weed control Cenchrus echinatus,"Cenchrus echinatus; 1080 g ai/ha, Table 5",88.8%
same,% Weed control Ipomoea hederifolia,Ipomoea hederifolia; 525 g ai/ha,26.25%
same,% Weed control Ipomoea hederifolia,Ipomoea hederifolia; 675 g ai/ha,27%
same,% Weed control Brachiaria decumbens,"Brachiaria decumbens; 540 g ai/ha, Table 9",68.8%
same,% Weed control Brachiaria decumbens,"Brachiaria decumbens; 1080 g ai/ha, Table 3",92.0%
same,% Weed control Brachiaria decumbens,"Brachiaria decumbens; 1080 g ai/ha, Table 6",75.0%
same,% Weed control Brachiaria decumbens,"Brachiaria decumbens; 1200 g ai/ha, Table 1",85.75%
same,% Weed control Eleusine indica,Eleusine indica; 525 g ai/ha,99.75%
same,% Weed control Eleusine indica,Eleusine indica; 675 g ai/ha,100.00%
CCOC(=O)[C@@H](C)Oc1ccc(Oc2cnc3cc(Cl)ccc3n2)cc1 [Quizalafop-p-ethyl],% Weed control Cenchrus echinatus,"Cenchrus echinatus; 87.5 g ai/ha, Table 5",77.5%
Cc1nn(-c2cc(NS(C)(=O)=O)c(Cl)cc2Cl)c(=O)n1C(F)F [Sulfentrazone],% Weed control Spermacoce verticillata,Spermacoce verticillata; 75 g ai/ha,92.25%
same,% Weed control Ipomoea hederifolia,Ipomoea hederifolia; 75 g ai/ha,98.00%
same,% Weed control Eleusine indica,Eleusine indica; 75 g ai/ha,90.00%
CNC(=O)N(C)c1nnc(C(C)(C)C)s1 [Tebuthiuron],% Weed control Ipomoea grandifolia,"Ipomoea grandifolia; 400 g ai/ha, 35 days after administration, Table 10",12.5%
same,% Weed control Commelina benghalensis,"Commelina benghalensis; 400 g ai/ha, Table 10",0.0%
CCCN(CCC)c1c([N+](=O)[O-])cc(C(F)(F)F)cc1[N+](=O)[O-] [Trifluralin],% Weed control Ipomoea grandifolia,"Ipomoea grandifolia; 300 g ai/ha, 35 days after administration, Table 11",0.0%

# — patent publication US20220361493A1, “HERBICIDE COMPOSITION” (UPL CORPORATION LIMITED, priority 2019, published 2022)
